{
  "source": "patent US20250115654A1",
  "about": "“PHARMACEUTICAL COMPOSITION OF GLP-1 RECEPTOR AND GIP RECEPTOR DUAL AGONIST, AND USE THEREOF” (FUJIAN SHENGDI PHARMACEUTICAL CO., LTD., priority 2021, published 2025)",
  "key": {"human GLP-1R": {"target": "human GLP-1R (Homo sapiens, UniProt P43220)", "sequence (P43220 24-463)": "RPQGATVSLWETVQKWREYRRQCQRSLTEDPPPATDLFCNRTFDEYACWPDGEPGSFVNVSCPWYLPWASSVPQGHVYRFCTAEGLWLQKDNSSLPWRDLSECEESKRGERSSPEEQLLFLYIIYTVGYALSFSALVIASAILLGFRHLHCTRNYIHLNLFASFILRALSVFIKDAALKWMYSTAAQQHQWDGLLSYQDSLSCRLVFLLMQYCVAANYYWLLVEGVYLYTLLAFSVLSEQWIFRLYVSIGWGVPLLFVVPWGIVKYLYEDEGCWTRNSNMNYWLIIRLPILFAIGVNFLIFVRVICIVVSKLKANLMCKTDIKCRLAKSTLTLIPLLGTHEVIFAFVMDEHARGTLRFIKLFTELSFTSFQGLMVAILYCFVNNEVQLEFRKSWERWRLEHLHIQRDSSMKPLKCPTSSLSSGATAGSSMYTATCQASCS", "experiment": "Agonist activity against GLP-1R, cAMP HTRF in CHO-K1/GLP-1R/CRE-luc stable cells", "details": "Activity against human GLP-1R (EC50 nM), Table 6 run"}, "DIO mice": {"system": "DIO mice", "experiment": "Food intake of DIO (diet-induced obesity) mice", "format": "in vivo, C57BL/6 mice", "description": "High-fat food-induced-obesity male C57BL/6 mice (weighing 35-55 g, aged 10-12 weeks, purchased from Shanghai Jiesijie Laboratory Animal Co., Ltd.) were tested. […] According to the experimental design, the body weight of each mouse was measured and recorded on day 0, day 3, day 6, and so on to day 27, the average body weight of each group of mice was calculated, and body weight change curves were plotted by taking the body weight on the first day as the standard. At the end, the fat and other visceral organs of each part of the mice were taken out and weighed, and the viscera/brain ratio for fat in each part of each mouse was calculated. The effect of the drug on the fat was determined by comparing the change in the viscera/brain ratio for fat of different parts of each group of mice.\nThe food intake of mice in each group was measured daily during the experiment."}},
  "note": "Numbered stars: 1 amine (or outer) side, 2 acyl side, 3 side chain; on linkers, the order of the positions; unused ones are H or OH. Square brackets hold non-standard residues; d marks the D form. Side chains are listed from the residue outwards. Peptide text beside a SMILES is read from it. * marks the point of attachment. C20 diacid = O=C(O)CCCCCCCCCCCCCCCCCCC(=O)*; γGlu = O=C(O)[C@H](CCC(=O)[*:2])N[*:1]; AEEA = NCCOCCOCC(=O)O; Aib = CC(C)(N)C(=O)O",
  "data": [
    {"compound": "CC[C@H](C)[C@H](NC(=O)[C@H](CCCCN)NC(=O)[C@H](CCC(=O)O)NC(=O)[C@H](CCCCNC(=O)COCCOCCNC(=O)COCCOCCNC(=O)CC[C@H](NC(=O)CCCCCCCCCCCCCCCCCCC(=O)O)C(=O)O)NC(=O)[C@H](Cc1ccc(O)cc1)NC(=O)[C@@H](NC(=O)[C@H](CO)NC(=O)[C@H](Cc1ccc(O)cc1)NC(=O)[C@H](CC(=O)O)NC(=O)[C@H](CO)NC(=O)[C@@H](NC(=O)[C@H](Cc1ccccc1)NC(=O)[C@@H](NC(=O)CNC(=O)[C@H](CCC(=O)O)NC(=O)C(C)(C)NC(=O)[C@@H](N)Cc1ccc(O)cc1)[C@@H](C)O)[C@@H](C)O)[C@@H](C)CC)C(=O)N[C@@H](C)C(=O)N[C@@H](C)C(=O)N[C@@H](CCC(N)=O)C(=O)N[C@@H](CCC(=O)O)C(=O)N[C@@H](Cc1ccccc1)C(=O)N[C@H](C(=O)N[C@@H](CC(N)=O)C(=O)N[C@@H](Cc1c[nH]c2ccccc12)C(=O)N[C@@H](CC(C)C)C(=O)N[C@@H](CC(C)C)C(=O)N[C@@H](C)C(=O)NCC(=O)NCC(=O)N1CCC[C@H]1C(=O)N[C@@H](CO)C(=O)N[C@@H](CO)C(=O)NCC(=O)N[C@@H](C)C(=O)N1CCC[C@H]1C(=O)N1CCC[C@H]1C(=O)N1CCC[C@H]1C(=O)N[C@@H](CO)C(N)=O)C(C)C", "note": "[Compound 18#] (H-Y[Aib]EGTFTSDYSIYK([AEEA-AEEA-γGlu-C20 diacid])EKIAAQEFVNWLLAGGPSSGAPPPS-NH2)", "values": [
      {"measurement": "EC50", "setting": "human GLP-1R", "value": 0.013, "unit": "nM"},
      {"measurement": "cumulative food intake", "setting": "DIO mice; 3 nmol/kg, 28 days after the administration", "value": 58.2, "unit": "g"},
      {"measurement": "daily food intake ration", "setting": "DIO mice; 3 nmol/kg, day 1 after administration", "value": "0.6 ± 0.1", "unit": "g"},
      {"measurement": "daily food intake ration", "setting": "DIO mice; 3 nmol/kg, day 1 after administration, listed as 18#", "value": 0.6, "unit": "g"},
      {"measurement": "daily food intake ration", "setting": "DIO mice; 3 nmol/kg, day 2 after administration", "value": "1.3 ± 0.5", "unit": "g"},
      {"measurement": "daily food intake ration", "setting": "DIO mice; 3 nmol/kg, day 3 after administration", "value": "2 ± 0.5", "unit": "g"},
      {"measurement": "daily food intake ration", "setting": "DIO mice; 3 nmol/kg, day 4 after administration", "value": "1.1 ± 0.4", "unit": "g"},
      {"measurement": "daily food intake ration", "setting": "DIO mice; 3 nmol/kg, day 5 after administration", "value": "2.2 ± 1.3", "unit": "g"},
      {"measurement": "daily food intake ration", "setting": "DIO mice; 3 nmol/kg, day 6 after administration", "value": "2.1 ± 1.1", "unit": "g"},
      {"measurement": "daily food intake ration", "setting": "DIO mice; 3 nmol/kg, day 7 after administration", "value": "1.1 ± 0.6", "unit": "g"},
      {"measurement": "daily food intake ration", "setting": "DIO mice; 3 nmol/kg, day 8 after administration", "value": "1.6 ± 0.6", "unit": "g"},
      {"measurement": "daily food intake ration", "setting": "DIO mice; 3 nmol/kg, day 9 after administration", "value": "2.5 ± 0.9", "unit": "g"},
      {"measurement": "daily food intake ration", "setting": "DIO mice; 3 nmol/kg, day 10 after administration", "value": "1.3 ± 0.6", "unit": "g"},
      {"measurement": "daily food intake ration", "setting": "DIO mice; 3 nmol/kg, day 11 after administration", "value": "2 ± 0.3", "unit": "g"},
      {"measurement": "daily food intake ration", "setting": "DIO mice; 3 nmol/kg, day 12 after administration", "value": "3 ± 1", "unit": "g"},
      {"measurement": "daily food intake ration", "setting": "DIO mice; 3 nmol/kg, day 13 after administration", "value": "1.8 ± 1", "unit": "g"},
      {"measurement": "daily food intake ration", "setting": "DIO mice; 3 nmol/kg, day 14 after administration", "value": "2.3 ± 1", "unit": "g"},
      {"measurement": "daily food intake ration", "setting": "DIO mice; 3 nmol/kg, day 15 after administration", "value": "2.9 ± 0.7", "unit": "g"},
      {"measurement": "daily food intake ration", "setting": "DIO mice; 3 nmol/kg, day 16 after administration", "value": "1.5 ± 0.7", "unit": "g"},
      {"measurement": "daily food intake ration", "setting": "DIO mice; 3 nmol/kg, day 17 after administration", "value": "2.2 ± 0.5", "unit": "g"},
      {"measurement": "daily food intake ration", "setting": "DIO mice; 3 nmol/kg, day 18 after administration", "value": "2.7 ± 0.3", "unit": "g"},
      {"measurement": "daily food intake ration", "setting": "DIO mice; 3 nmol/kg, day 19 after administration", "value": "1.7 ± 0.5", "unit": "g"},
      {"measurement": "daily food intake ration", "setting": "DIO mice; 3 nmol/kg, day 20 after administration", "value": "2.2 ± 0.5", "unit": "g"},
      {"measurement": "daily food intake ration", "setting": "DIO mice; 3 nmol/kg, day 21 after administration", "value": "3.4 ± 0.4", "unit": "g"},
      {"measurement": "daily food intake ration", "setting": "DIO mice; 3 nmol/kg, day 22 after administration", "value": "1.8 ± 0.5", "unit": "g"},
      {"measurement": "daily food intake ration", "setting": "DIO mice; 3 nmol/kg, day 23 after administration", "value": "2.6 ± 0.4", "unit": "g"},
      {"measurement": "daily food intake ration", "setting": "DIO mice; 3 nmol/kg, day 24 after administration", "value": "2.9 ± 0.5", "unit": "g"},
      {"measurement": "daily food intake ration", "setting": "DIO mice; 3 nmol/kg, day 25 after administration", "value": "1.8 ± 0.8", "unit": "g"},
      {"measurement": "daily food intake ration", "setting": "DIO mice; 3 nmol/kg, day 26 after administration", "value": "2.5 ± 0.9", "unit": "g"},
      {"measurement": "daily food intake ration", "setting": "DIO mice; 3 nmol/kg, day 27 after administration", "value": "3.9 ± 0.5", "unit": "g"},
      {"measurement": "daily food intake ration", "setting": "DIO mice; 3 nmol/kg, day 28 after administration", "value": "1.3 ± 0.6", "unit": "g"},
      {"measurement": "cumulative food intake", "setting": "DIO mice; 3 nmol/kg, within 5 days after the administration", "value": 7.2, "unit": "g"},
      {"measurement": "cumulative food intake", "setting": "DIO mice; 10 nmol/kg, 28 days after the administration", "value": 46.8, "unit": "g"},
      {"measurement": "daily food intake ration", "setting": "DIO mice; 10 nmol/kg, day 1 after administration", "value": "0.3 ± 0.2", "unit": "g"},
      {"measurement": "daily food intake ration", "setting": "DIO mice; 10 nmol/kg, day 1 after administration, listed as 18#", "value": 0.3, "unit": "g"},
      {"measurement": "daily food intake ration", "setting": "DIO mice; 10 nmol/kg, day 2 after administration", "value": "0.6 ± 0.6", "unit": "g"},
      {"measurement": "daily food intake ration", "setting": "DIO mice; 10 nmol/kg, day 3 after administration", "value": "1.1 ± 0.7", "unit": "g"},
      {"measurement": "daily food intake ration", "setting": "DIO mice; 10 nmol/kg, day 4 after administration", "value": "0.7 ± 0.5", "unit": "g"},
      {"measurement": "daily food intake ration", "setting": "DIO mice; 10 nmol/kg, day 5 after administration", "value": "1.1 ± 0.5", "unit": "g"},
      {"measurement": "daily food intake ration", "setting": "DIO mice; 10 nmol/kg, day 6 after administration", "value": "1.5 ± 0.8", "unit": "g"},
      {"measurement": "daily food intake ration", "setting": "DIO mice; 10 nmol/kg, day 7 after administration", "value": "0.8 ± 0.4", "unit": "g"},
      {"measurement": "daily food intake ration", "setting": "DIO mice; 10 nmol/kg, day 8 after administration", "value": "1.1 ± 0.7", "unit": "g"},
      {"measurement": "daily food intake ration", "setting": "DIO mice; 10 nmol/kg, day 9 after administration", "value": "2 ± 0.6", "unit": "g"},
      {"measurement": "daily food intake ration", "setting": "DIO mice; 10 nmol/kg, day 10 after administration", "value": "0.9 ± 0.4", "unit": "g"},
      {"measurement": "daily food intake ration", "setting": "DIO mice; 10 nmol/kg, day 11 after administration", "value": "1.8 ± 0.8", "unit": "g"},
      {"measurement": "daily food intake ration", "setting": "DIO mice; 10 nmol/kg, day 12 after administration", "value": "2.4 ± 0.6", "unit": "g"},
      {"measurement": "daily food intake ration", "setting": "DIO mice; 10 nmol/kg, day 13 after administration", "value": "0.9 ± 0.4", "unit": "g"},
      {"measurement": "daily food intake ration", "setting": "DIO mice; 10 nmol/kg, day 14 after administration", "value": "1.7 ± 0.7", "unit": "g"},
      {"measurement": "daily food intake ration", "setting": "DIO mice; 10 nmol/kg, day 15 after administration", "value": "3 ± 0.9", "unit": "g"},
      {"measurement": "daily food intake ration", "setting": "DIO mice; 10 nmol/kg, day 16 after administration", "value": "1.2 ± 1", "unit": "g"},
      {"measurement": "daily food intake ration", "setting": "DIO mice; 10 nmol/kg, day 17 after administration", "value": "2.1 ± 0.9", "unit": "g"},
      {"measurement": "daily food intake ration", "setting": "DIO mice; 10 nmol/kg, day 18 after administration", "value": "2.9 ± 0.8", "unit": "g"},
      {"measurement": "daily food intake ration", "setting": "DIO mice; 10 nmol/kg, day 19 after administration", "value": "1.3 ± 0.5", "unit": "g"},
      {"measurement": "daily food intake ration", "setting": "DIO mice; 10 nmol/kg, day 20 after administration", "value": "2 ± 0.5", "unit": "g"},
      {"measurement": "daily food intake ration", "setting": "DIO mice; 10 nmol/kg, day 21 after administration", "value": "3.2 ± 0.6", "unit": "g"},
      {"measurement": "daily food intake ration", "setting": "DIO mice; 10 nmol/kg, day 22 after administration", "value": "1 ± 0.4", "unit": "g"},
      {"measurement": "daily food intake ration", "setting": "DIO mice; 10 nmol/kg, day 23 after administration", "value": "2.3 ± 0.5", "unit": "g"},
      {"measurement": "daily food intake ration", "setting": "DIO mice; 10 nmol/kg, day 24 after administration", "value": "2.5 ± 0.6", "unit": "g"},
      {"measurement": "daily food intake ration", "setting": "DIO mice; 10 nmol/kg, day 25 after administration", "value": "1.6 ± 1.2", "unit": "g"},
      {"measurement": "daily food intake ration", "setting": "DIO mice; 10 nmol/kg, day 26 after administration", "value": "2.2 ± 0.8", "unit": "g"},
      {"measurement": "daily food intake ration", "setting": "DIO mice; 10 nmol/kg, day 27 after administration", "value": "3.6 ± 1^ g"},
      {"measurement": "daily food intake ration", "setting": "DIO mice; 10 nmol/kg, day 28 after administration", "value": "1 ± 0.5", "unit": "g"}
    ]}
  ]
}
